Structures can show the parent of a compound that is named as a salt. Where two headings read alike, the source gives them in different places.
Assays:
Assay type in all cases: cell-based
[1] = system: Staphylococcus epidermidis ATCC 12228; experiment: in vitro bacteriostatic activity, agar dilution MIC, quality control strain; conditions: Staphylococcus epidermidis, ATCC12228
Escherichia coli = experiment: in vitro bacteriostatic activity, agar dilution MIC, quality control strain and summary; conditions: ATCC25922; Escherichia coli ATCC 25922; read-out: MIC
[2] = system: Staphylococcus epidermidis MSSE; experiment: in vitro bacteriostatic activity, agar dilution MIC
Streptococcus pneumoniae = experiment: as above
Klebsiella pneumonia = experiment: in vitro bacteriostatic activity, agar dilution MIC, quality control strain and summary; conditions: Klebsiella pneumoniae, ATCC700603; Klebsiella pneumonia ATCC 700603; read-out: MIC
[3] = system: Staphylococcus aureus MSSA; experiment: in vitro bacteriostatic activity, agar dilution MIC; conditions: Staphylococcus aureus, MSSA
Klebsiella pneumonia E^- = experiment: as above
Escherichia coli E^- = experiment: as above
Staphylococcus aureus = experiment: in vitro bacteriostatic activity, agar dilution MIC, quality control strains; conditions: ATCC25923; Staphylococcus aureus ATCC 25923; read-out: MIC
Enterococcus faecium = experiment: in vitro bacteriostatic activity, agar dilution MIC; conditions: Enterococcus faecium, read-out: MIC
[4] = system: Staphylococcus epidermidis MRSE; experiment: as above
Klebsiella pneumonia E^+ = experiment: as above; conditions: Klebsiella pneumoniae
[5] = system: Staphylococcus aureus MRSA; experiment: as above; conditions: MRSA
Enterococcus faecalis = experiment: as above; conditions: Enterococcus faecalis, read-out: MIC

C[C@H]1COc2c(N3CCN(C)CC3)c(F)cc3c(=O)c(C(=O)O)cn1c23 [levofloxacin, Levofloxacin hydrochloride]
MIC [1]: 0.125 µg/mL | MIC (Escherichia coli): < 0.006 µg/mL | MIC ([2]; Staphylococcus epidermidis): 0.125 µg/mL | MIC ([2]; Staphylococcus epidermidis MSSE 12-12): 0.125 µg/mL | MIC ([2]; Staphylococcus epidermidis MSSE 12-16): 0.125 µg/mL | MIC ([2]; Staphylococcus epidermidis, Staphylococcus epidermidis MSSE 10-43, read-out: MIC): 0.1 µg/mL | MIC ([2]; Staphylococcus epidermidis, Staphylococcus epidermidis MSSE 10-44, read-out: MIC): 3.1 µg/mL | MIC ([2]; Staphylococcus epidermidis, Staphylococcus epidermidis MSSE 12-13, read-out: MIC): 0.5 µg/mL | MIC ([2]; Staphylococcus epidermidis, Staphylococcus epidermidis MSSE 12-14, read-out: MIC): 0.5 µg/mL | MIC ([2]; Staphylococcus epidermidis, Staphylococcus epidermidis MSSE 12-15, read-out: MIC): 0.5 µg/mL | MIC ([2]; Staphylococcus epidermidis, Staphylococcus epidermidis MSSE 12-17, read-out: MIC): 0.5 µg/mL | MIC ([2]; Staphylococcus epidermidis, Staphylococcus epidermidis MSSE 12-18, read-out: MIC): 1 µg/mL | MIC ([2]; Staphylococcus epidermidis, Staphylococcus epidermidis MSSE 12-19, read-out: MIC): 0.5 µg/mL | MIC ([2]; Staphylococcus epidermidis, Staphylococcus epidermidis MSSE 12-20, read-out: MIC): 1 µg/mL | MIC (Streptococcus pneumoniae; ATCC49619, Streptococcus pneumonia ATCC 49619): 0.1 µg/mL | MIC (Streptococcus pneumoniae; Streptococcus pneumonia 12-6): 25 µg/mL | MIC (Streptococcus pneumoniae; Streptococcus pneumonia 12-7): 12.5 µg/mL | MIC (Streptococcus pneumoniae; Streptococcus pneumonia 12-8): 25 µg/mL | MIC (Streptococcus pneumoniae; Streptococcus pneumonia 12-9): 25 µg/mL | MIC (Streptococcus pneumoniae; Streptococcus pneumonia 12-10): 12.5 µg/mL | MIC (Streptococcus pneumoniae; Streptococcus pneumoniae 12-1): 12.5 µg/mL | MIC (Streptococcus pneumoniae; Streptococcus pneumoniae 12-2): 25 µg/mL | MIC (Streptococcus pneumoniae; Streptococcus pneumoniae 12-3): 25 µg/mL | MIC (Streptococcus pneumoniae; Streptococcus pneumoniae 12-4): 25 µg/mL | MIC (Streptococcus pneumoniae; Streptococcus pneumoniae 12-5): 25 µg/mL | MIC (Klebsiella pneumonia): 0.39 µg/mL | MIC ([3]; Staphylococcus aureus MSSA 10-38, read-out: MIC): 0.1 µg/mL | MIC ([3]; Staphylococcus aureus MSSA 10-40, read-out: MIC): 0.1 µg/mL | MIC ([3]; Staphylococcus aureus MSSA 10-41, read-out: MIC): 0.1 µg/mL | MIC ([3]; Staphylococcus aureus MSSA 12-11): 0.125 µg/mL | MIC ([3]; Staphylococcus aureus MSSA 12-13): 0.125 µg/mL | MIC ([3]; Staphylococcus aureus MSSA 12-14): 0.125 µg/mL | MIC ([3]; Staphylococcus aureus MSSA 12-15): 0.125 µg/mL | MIC ([3]; Staphylococcus aureus MSSA 12-16, read-out: MIC): 0.06 µg/mL | MIC ([3]; Staphylococcus aureus MSSA 12-17, read-out: MIC): 0.06 µg/mL | MIC ([3]; Staphylococcus aureus MSSA 12-18): 0.125 µg/mL | MIC ([3]; Staphylococcus aureus MSSA 12-19, read-out: MIC): 0.06 µg/mL | MIC ([3]; Staphylococcus aureus MSSA 12-20): 0.125 µg/mL | MIC ([3]; Staphylococcus aureus MSSA 12-21): 0.125 µg/mL | MIC (Klebsiella pneumonia E^-; Klebsiella pneumonia E^- 10-18): 0.025 µg/mL | MIC (Klebsiella pneumonia E^-; Klebsiella pneumoniae, Klebsiella pneumonia E^- 10-16, read-out: MIC): 0.025 µg/mL | MIC (Escherichia coli E^-; Escherichia coli E^- 10-12): 0.1 µg/mL | MIC (Escherichia coli E^-; Escherichia coli E^- 10-18): 12.5 µg/mL | MIC (Staphylococcus aureus): 0.1 µg/mL | MIC (Enterococcus faecium; ATCC33186, Enterococcus faecium ATCC 33186): 1 µg/mL | MIC (Enterococcus faecium; Enterococcus faecium 12-7): 32 µg/mL | MIC (Enterococcus faecium; Enterococcus faecium 12-8): 64 µg/mL | MIC (Enterococcus faecium; Enterococcus faecium 12-9): 32 µg/mL | MIC (Enterococcus faecium; Enterococcus faecium 12-10): 32 µg/mL | MIC (Enterococcus faecium; Enterococcus faecium 12-11): 32 µg/mL | MIC (Enterococcus faecium; Enterococcus faecium 12-12): 64 µg/mL | MIC (Enterococcus faecium; Enterococcus faecium 12-13): 64 µg/mL | MIC (Enterococcus faecium; Enterococcus faecium 12-14): 32 µg/mL | MIC (Enterococcus faecium; Enterococcus faecium 12-15): 32 µg/mL | MIC (Enterococcus faecium; Enterococcus faecium 12-16): 64 µg/mL | MIC ([4]; Staphylococcus epidermidis MRSE 10-40, read-out: MIC): 0.1 µg/mL | MIC ([4]; Staphylococcus epidermidis MRSE 10-44, read-out: MIC): 3.1 µg/mL | MIC (Klebsiella pneumonia E^+; Klebsiella pneumonia E^+ 10-2): 12.5 µg/mL | MIC (Klebsiella pneumonia E^+; Klebsiella pneumonia E^+ 10-6): 0.0125 µg/mL | MIC ([5]; Staphylococcus aureus MRSA 10-31, read-out: MIC): 25 µg/mL | MIC ([5]; Staphylococcus aureus MRSA 10-32, read-out: MIC): 12.5 µg/mL | MIC (Enterococcus faecalis; ATCC29212, Enterococcus faecalis ATCC 29212): 0.25 µg/mL | MIC (Enterococcus faecalis; ATCC51299, Enterococcus faecalis (high endurance) ATCC 51299): 0.25 µg/mL | MIC (Enterococcus faecalis; Enterococcus faecalis 12-11): 16 µg/mL | MIC (Enterococcus faecalis; Enterococcus faecalis 12-12): 32 µg/mL | MIC (Enterococcus faecalis; Enterococcus faecalis 12-13): 8 µg/mL | MIC (Enterococcus faecalis; Enterococcus faecalis 12-14): 64 µg/mL | MIC (Enterococcus faecalis; Enterococcus faecalis 12-17): 0.5 µg/mL | MIC (Enterococcus faecalis; Enterococcus faecalis 12-18): 0.5 µg/mL | MIC (Enterococcus faecalis; Enterococcus faecalis 12-19): 32 µg/mL | MIC (Enterococcus faecalis; Enterococcus faecalis 12-20): 4 µg/mL | MIC (Enterococcus faecalis; Enterococcus faecalis 12-21): 4 µg/mL | MIC (Enterococcus faecalis; Enterococcus faecalis 12-22): 8 µg/mL
